In article PMC6348381, “Discovery of an MLLT1/3 YEATS Domain Chemical Probe” (Angewandte Chemie (International Ed. in English), 2018):

Columns and labels:
Assay type in all cases: binding
WDR9(2) = target: T1, WDR9(2) (Homo sapiens, UniProt Q9NSI6); test: Thermal shift assay, WDR9(2)
T1 construct: Bromosporine with recombinant human bromodomain proteins; made in house
Protocol: (§1) II.VII Thermal Shift Assay[6]
(§2) Thermal melting experiments were carried out using an Mx3005p Real Time PCR machine (Stratagene). Proteins were buffered in 10 mM HEPES pH 7.5, 500 mM NaCl and assayed in a 96-well plate at a final concentration of 2 μM in 20 μL volume. Compounds were added at a final concentration of 50 μM. SYPRO Orange (Molecular Probes) was added as a fluorescence probe at a dilution of 1:1000. Excitation and emission filters for the SYPRO-Orange dye were set to 465 nm and 590 nm, respectively. The temperature was raised with a step of 3 °C per minute from 25 °C to 96 °C and fluorescence readings were taken at each interval. The unfolding curves were fitted using the Boltzmann equation to determine the middle point of the transition.

BRD7 = target: T2, BRD7 (Homo sapiens, UniProt Q9NPI1); test: Thermal shift assay, BRD7
T2 construct: purchased in-house (SGC bromodomain thermal shift / AlphaScreen panel)
T2 sequence (Q9NPI1 1-651): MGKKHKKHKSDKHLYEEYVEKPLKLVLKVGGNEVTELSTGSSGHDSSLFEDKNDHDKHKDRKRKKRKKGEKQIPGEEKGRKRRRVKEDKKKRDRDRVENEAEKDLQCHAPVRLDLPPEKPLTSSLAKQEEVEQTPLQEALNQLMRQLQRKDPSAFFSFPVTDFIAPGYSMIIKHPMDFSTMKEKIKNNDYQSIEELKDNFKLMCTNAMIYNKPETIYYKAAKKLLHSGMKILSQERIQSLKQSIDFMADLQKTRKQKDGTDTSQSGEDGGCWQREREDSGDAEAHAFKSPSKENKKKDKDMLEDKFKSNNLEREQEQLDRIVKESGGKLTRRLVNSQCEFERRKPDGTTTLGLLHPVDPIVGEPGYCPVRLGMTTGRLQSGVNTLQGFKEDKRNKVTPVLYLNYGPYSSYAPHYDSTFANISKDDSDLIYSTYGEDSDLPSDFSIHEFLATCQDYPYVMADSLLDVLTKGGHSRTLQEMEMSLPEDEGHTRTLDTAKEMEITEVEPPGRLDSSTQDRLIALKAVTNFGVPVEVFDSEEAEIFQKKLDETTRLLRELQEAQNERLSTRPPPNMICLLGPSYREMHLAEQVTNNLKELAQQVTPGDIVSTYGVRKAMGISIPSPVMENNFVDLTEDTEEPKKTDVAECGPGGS
Protocol: as §1, §2

BRD2(1) = target: T3, BRD2(1) (Homo sapiens, UniProt P25440); test: Thermal shift assay, BRD2(1)
T3 construct: BRD2(1); purchased in-house (SGC bromodomain thermal shift / AlphaScreen panel)
T3 sequence (P25440 71-194 limits assumed): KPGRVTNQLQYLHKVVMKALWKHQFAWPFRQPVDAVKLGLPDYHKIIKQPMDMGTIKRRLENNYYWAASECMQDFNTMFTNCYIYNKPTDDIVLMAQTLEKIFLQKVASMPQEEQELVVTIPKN

PB1(2) = target: T4, PB1(2) (Homo sapiens, UniProt Q86U86); test: Thermal shift assay, PB1(2)
T4 construct: PB1(2); purchased in-house (SGC bromodomain thermal shift / AlphaScreen panel)
T4 sequence (Q86U86 178-291 limits assumed): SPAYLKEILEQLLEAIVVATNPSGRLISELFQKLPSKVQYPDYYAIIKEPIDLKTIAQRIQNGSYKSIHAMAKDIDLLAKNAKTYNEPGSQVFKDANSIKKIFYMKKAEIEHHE

PB1(5) = target: T5, PB1(5) (Homo sapiens, UniProt Q86U86); test: Thermal shift assay, PB1(5)
T5 construct: PB1(5); purchased in-house (SGC bromodomain thermal shift / AlphaScreen panel)
T5 sequence (Q86U86 645-766 limits assumed): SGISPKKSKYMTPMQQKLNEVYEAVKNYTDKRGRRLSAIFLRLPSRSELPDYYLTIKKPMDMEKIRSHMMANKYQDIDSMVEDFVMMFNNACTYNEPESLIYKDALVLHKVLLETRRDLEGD
Protocol: as §1, §2

TRIM28 = target: T6, TRIM28 (Homo sapiens, UniProt Q13263); test: Thermal shift assay, TRIM28
T6 construct: Bromosporine with recombinant human bromodomain proteins; made in house
T6 sequence (Q13263 695-799 limits assumed): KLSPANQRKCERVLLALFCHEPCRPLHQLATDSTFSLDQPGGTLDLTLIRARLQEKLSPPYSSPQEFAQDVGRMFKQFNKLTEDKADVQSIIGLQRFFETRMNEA
Protocol: as §1, §2

GCN5 = target: T7, GCN5 (Homo sapiens, UniProt Q92830); test: Thermal shift assay, GCN5
T7 construct: purchased in-house (SGC bromodomain thermal shift / AlphaScreen panel)
T7 sequence (Q92830 whole entry): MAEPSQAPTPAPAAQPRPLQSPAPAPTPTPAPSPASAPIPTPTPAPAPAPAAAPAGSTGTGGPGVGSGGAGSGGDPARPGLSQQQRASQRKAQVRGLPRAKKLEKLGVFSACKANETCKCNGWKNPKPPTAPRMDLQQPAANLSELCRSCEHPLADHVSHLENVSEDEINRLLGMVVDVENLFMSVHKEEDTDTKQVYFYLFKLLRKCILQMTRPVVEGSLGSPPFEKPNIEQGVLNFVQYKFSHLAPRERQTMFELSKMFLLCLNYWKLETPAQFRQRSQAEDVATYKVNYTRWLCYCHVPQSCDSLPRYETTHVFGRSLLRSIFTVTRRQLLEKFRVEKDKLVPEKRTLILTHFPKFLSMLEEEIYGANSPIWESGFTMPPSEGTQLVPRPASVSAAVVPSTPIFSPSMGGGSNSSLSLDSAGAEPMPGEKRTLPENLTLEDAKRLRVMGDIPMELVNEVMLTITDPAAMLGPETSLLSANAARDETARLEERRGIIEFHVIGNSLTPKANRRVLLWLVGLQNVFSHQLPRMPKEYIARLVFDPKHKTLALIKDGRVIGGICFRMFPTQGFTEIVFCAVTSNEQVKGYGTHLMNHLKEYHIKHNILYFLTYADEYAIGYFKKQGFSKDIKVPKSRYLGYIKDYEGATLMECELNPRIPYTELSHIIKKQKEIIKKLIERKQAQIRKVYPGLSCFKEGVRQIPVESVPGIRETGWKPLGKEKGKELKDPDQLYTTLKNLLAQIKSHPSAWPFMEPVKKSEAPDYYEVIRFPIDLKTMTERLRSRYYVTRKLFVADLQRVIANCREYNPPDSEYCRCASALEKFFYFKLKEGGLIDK
Protocol: as §1, §2

BRPF1B = target: T8, BRPF1B (Homo sapiens, UniProt P55201); test: Thermal shift assay, BRPF1B
T8 construct: purchased in-house (SGC bromodomain thermal shift / AlphaScreen panel)
T8 sequence (P55201 1-1214): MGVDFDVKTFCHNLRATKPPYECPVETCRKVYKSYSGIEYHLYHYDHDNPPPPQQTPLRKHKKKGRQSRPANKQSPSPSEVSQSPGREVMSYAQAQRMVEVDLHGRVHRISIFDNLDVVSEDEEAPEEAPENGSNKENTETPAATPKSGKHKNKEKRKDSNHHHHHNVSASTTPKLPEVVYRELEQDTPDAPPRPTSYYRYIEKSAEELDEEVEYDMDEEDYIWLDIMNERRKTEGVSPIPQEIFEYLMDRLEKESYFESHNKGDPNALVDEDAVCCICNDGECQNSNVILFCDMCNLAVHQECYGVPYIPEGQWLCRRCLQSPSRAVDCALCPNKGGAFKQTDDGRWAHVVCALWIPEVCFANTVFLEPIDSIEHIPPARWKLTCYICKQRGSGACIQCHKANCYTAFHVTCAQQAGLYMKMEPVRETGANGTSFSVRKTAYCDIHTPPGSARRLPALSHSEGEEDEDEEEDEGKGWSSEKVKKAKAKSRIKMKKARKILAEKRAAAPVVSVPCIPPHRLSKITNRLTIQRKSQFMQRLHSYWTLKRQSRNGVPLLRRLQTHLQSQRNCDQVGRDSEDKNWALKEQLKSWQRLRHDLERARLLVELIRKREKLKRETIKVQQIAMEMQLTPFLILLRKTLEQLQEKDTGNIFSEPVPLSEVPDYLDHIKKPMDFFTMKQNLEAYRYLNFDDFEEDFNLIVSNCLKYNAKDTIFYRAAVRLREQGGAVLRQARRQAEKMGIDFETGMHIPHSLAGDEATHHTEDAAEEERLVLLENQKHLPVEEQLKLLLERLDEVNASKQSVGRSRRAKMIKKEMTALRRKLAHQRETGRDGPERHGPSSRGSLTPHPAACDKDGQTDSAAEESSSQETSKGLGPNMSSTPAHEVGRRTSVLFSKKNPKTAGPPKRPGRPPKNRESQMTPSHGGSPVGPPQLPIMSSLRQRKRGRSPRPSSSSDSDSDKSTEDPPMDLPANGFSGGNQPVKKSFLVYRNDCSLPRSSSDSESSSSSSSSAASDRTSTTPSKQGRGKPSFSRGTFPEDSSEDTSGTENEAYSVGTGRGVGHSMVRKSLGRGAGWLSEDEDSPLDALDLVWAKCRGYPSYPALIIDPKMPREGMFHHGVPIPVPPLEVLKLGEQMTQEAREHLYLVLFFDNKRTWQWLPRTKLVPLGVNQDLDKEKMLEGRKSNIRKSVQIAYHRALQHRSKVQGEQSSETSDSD

T1 sequence (Q9NSI6 1313-1418 limits assumed): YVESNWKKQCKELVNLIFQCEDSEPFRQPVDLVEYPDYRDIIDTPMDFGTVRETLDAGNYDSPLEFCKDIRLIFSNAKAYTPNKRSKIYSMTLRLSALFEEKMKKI

Thermal stabilisation, WDR9(2) (WDR9(2); 10 µM compound concentration) | Thermal stabilisation, BRD7 (BRD7; 10 µM compound concentration) | Thermal stabilisation, BRD2(1) (BRD2(1); 10 µM compound concentration) | Thermal stabilisation, PB1(2) (PB1(2); 10 µM compound concentration) | Thermal stabilisation, PB1(5) (PB1(5); 10 µM compound concentration) | Thermal stabilisation, TRIM28 (TRIM28; 10 µM compound concentration) | Thermal stabilisation, GCN5 (GCN5; 10 µM compound concentration) | Thermal stabilisation, BRPF1B (BRPF1B; 10 µM compound concentration) | Compound | Thermal stabilisation, WDR9(2) (WDR9(2); 50 μM compound) | Thermal stabilisation, BRD7 (BRD7; 50 μM compound) | Thermal stabilisation, BRD2(1) (BRD2(1); 50 μM compound) | Thermal stabilisation, PB1(2) (PB1(2); 50 μM compound) | Thermal stabilisation, PB1(5) (PB1(5); 50 μM compound) | Thermal stabilisation, TRIM28 (TRIM28; 50 μM compound) | Thermal stabilisation, GCN5 (GCN5; 50 μM compound) | Thermal stabilisation, BRPF1B (BRPF1B; 50 μM compound)
– | – | – | – | – | – | – | – | COC(=O)c1ccc(C(=O)Nc2ccc3[nH]c(CN4CCCCC4)nc3c2)cc1 [Compound 1] | -0.18 | 0.57 | 1.345 | 0.105 | -0.245 | 0.02 | 0.145 | 0.275
– | – | – | – | – | – | – | – | C[C@H]1CCCN1Cc1nc2cc(NC(=O)c3ccc4c(cnn4C)c3)ccc2[nH]1 [Compound 92] | -0.775 | -0.08 | -0.28 | -0.17 | -0.56 | -0.225 | -0.225 | -0.435
-1.225 | 8.48 | 4.46 | 0.105 | 0.98 | 0.265 | 0.925 | 4.23 | CCOC(=O)Nc1cc(-c2ccc(C)c(NS(C)(=O)=O)c2)nn2c(C)nnc12 [Bromosporine, reference compound] | – | – | – | – | – | – | – | –
